Reference: patent US5676937A, “Deodorant compositions comprising inhibitors of odor-producing axillary bacterial exoenzymes” (Colgate-Palmolive Company, priority 1995, dated 1997)
Read-outs that look alike come from different tables or passages of the source.

What was measured:
[1] = molecular target: T1, beta-glucuronidase (Escherichia coli, UniProt P05804); test: Semiquantitative assay of beta-glucuronidase (4-MUG to fluorescent 4-MU); type: biochemical, E. coli; set-up: key: + indicates enzyme inhibition; - indicates no enzyme inhibition; settings: test inhibitor at 0.1 mM to 100 mM, 37° C., Tris pH 7, fluorescence by UV lamp
T1 construct: purchased Sigma Chemical Co
Protocol: (§1) B-glucuronidase from E. coli and aryl sulfatase from Aerobacter aerogenes, 4-methyl umbelliferyl glucuronide, 4-methylumbelliferyl sulfate, 4-methylumbelliferone, and D-saccharic acid-.tangle-solidup.-lactone were purchased from Sigma Chemical Co. Sodium hexametaphosphate (SPORIX) was obtained from International Sourcing.
(§2) Semiquantitative assays of the exoenzymes beta-G and AS were prepared. The enzyme assays measure conversion at 37° C. of the non-fluorescent substrates 4-MUG (for beta-G) and 4-MUS (for AS) to fluorescent product, 4-MU. The assay mixtures contained:
(§3) For the semiquantitative studies, fluorescence was detected by long-wave UV lamp (Black-Light Eastern Corporation Model XX 15).
(§4) The effects of inhibitors on the enzymatic reactions were assessed by substituting aqueous Solutions of test inhibitor, at 0.1 mM to 100 mM, for the water. To rule out quenching of the fluorescence reaction by the inhibitors separate tests were performed comparing the fluorescence from 4-MU at the maximum concentration expected in the enzyme reaction mixtures with either inhibitor solution or water.
(§5) Various inhibiting compounds of mammalian beta-G's and AS's, as well as related materials, were tested in the assay. The classic inhibitor of beta-G is saccharic acid-.tangle-solidup.-lactone (glucarolactone). This material was tested as well as the simple sugars, mannose, fucose and galactosamine and the polysaccharide pullulan. One of the reported inhibitors of beta-G, EDTA, is a strong chelating agent. Also tested against the enzyme were o-phenanthroline, citrate, gluconate, nitrilotriacetate and hexametaphosophate.

[2] = tested on: lipophilic diphtheroid; test: Inhibition of odor from apocrine secretion treated with lipophilic diphtheroids (panel odor evaluation); type: cell-based; settings: lipophilic diphtheroids + apocrine sweat + inhibitor 40 mM; 37° C.; evaluated at 24 hr and 48 hr; panel of five
Protocol: (§6) Apocrine secretion fluid was collected from eleven subjects. The axillary area was shaved, washed with a 0.1% solution of Triton X-100, rinsed with water, blotted dry, then rinsed with hexane. An intradermal injection of 0.1 ml of 1:2000 adrenaline was performed to stimulate the apocrine glands. Micropipettes (10 μl) were placed directly against the skin to collect the droplets of apocrine secretion. Samples were frozen until ready for use. The samples were eluted from the capillary tubes with 0.1M Tris buffer, pH 7.0, when ready for use in the odor-generation studies. Lipophilic diphtheroid cultures isolated from human axillae were obtained.
(§7) Inhibiting compounds were then tested to determine their effect on odor production in apocrine secretion. Sterile, odorless apocrine secretion was eluted from capillaries into 1.5 ml of 0.1M Tris buffer, pH 7.0. In the first study, apocrine sweat was treated with beta-glucuronidase, (E. coli) and aryl sulfatase (Aerobacter aerogenes) at 0.01 mg/ml in Tris buffer, 0.1M, pH 7.0. The apocrine secretion was also treated with the lipophilic diphtheroid and with a mixed culture of axillary bacteria, each in sterile saline suspension.
(§8) In a second study, inhibitors of the two enzymes were included in the reaction mixtures--Zn++ as Zn-Glycinate, saccharic acid lactone and hexametaphosphate. The concentration of each inhibitor used in this study was 40 mM. […]

[3] = molecular target: T1, beta-glucuronidase; test: Quantitative fluorimetric assay of beta-G; type: biochemical, E. coli; settings: FIG. 3; for effective inhibitor concentration range for beta-G: relative initial rate vs log inhibitor concentration, 37° C.; for level at which inhibition of beta-G is provided: in words
Protocol: In addition to the semiquantitative assays several inhibitors of each, beta-G and AS, were assayed by quantitative fluorimetry. […] Prior to the performance of quantitative assays it was necessary to determine absorption and emission maxima of the fluorescent product 4-MU, as well as a concentration range for which the fluorescence intensity of this species varies linearly with concentration. A solution of 4-MU, 2 μg.ml, was prepared in 0.1M Tris buffer, pH 7.0. The absorption spectrum was scanned, giving a maximum at 334 nm. The emission maximum, 444 nm, was obtained by scanning the emission spectrum while irradiating at 334 nm. All quantitative fluorescence studies employed these parameters.
The levels of 4-MU generated in beta-G and AS assays fell into range 1. The conversion factor was 1 fluorescence unit=0.09 μM 4-MU.
Samples were prepared as described above. All components, except the enzyme, were warmed to 37° C. before addition of the enzyme. During the assays, reaction mixtures were maintained at 37° C. Fluorescence intensities were measured as a function of time.
As in the semi-quantitative tests, the progress of the reactions was indicated by the development of fluorescent product 4-MU from the non-fluorescent substrates, 4-MUG and 4-MUS. The data was recorded as fluorescence emission intensity as a function of time. […] Similar plots were constructed for each inhibitor. At each concentration, the beginning slope indicates the initial reaction rate. These rates were then expressed as a fraction of the uninhibited reaction rate and plotted against the log of the inhibitor concentration.

[4] = tested on: mixture of AS and betaG; test: Inhibition of odor from apocrine secretion treated with enzymes (panel odor evaluation); type: biochemical, E. coli; Aerobacter aerogenes; settings: enzymes (AS + betaG) + apocrine sweat + inhibitor 40 mM; 37° C.; evaluated at 24 hr and 48 hr; panel of five
Protocol: as §6, §7, §8

[5] = molecular target: T2, aryl sulfatase (Klebsiella aerogenes, UniProt P20713); type: biochemical; set-up: key: + indicates enzyme inhibition; - indicates no enzyme inhibition
T2 construct: purchased Sigma Chemical Co
T2 sequence (P20713 21-464): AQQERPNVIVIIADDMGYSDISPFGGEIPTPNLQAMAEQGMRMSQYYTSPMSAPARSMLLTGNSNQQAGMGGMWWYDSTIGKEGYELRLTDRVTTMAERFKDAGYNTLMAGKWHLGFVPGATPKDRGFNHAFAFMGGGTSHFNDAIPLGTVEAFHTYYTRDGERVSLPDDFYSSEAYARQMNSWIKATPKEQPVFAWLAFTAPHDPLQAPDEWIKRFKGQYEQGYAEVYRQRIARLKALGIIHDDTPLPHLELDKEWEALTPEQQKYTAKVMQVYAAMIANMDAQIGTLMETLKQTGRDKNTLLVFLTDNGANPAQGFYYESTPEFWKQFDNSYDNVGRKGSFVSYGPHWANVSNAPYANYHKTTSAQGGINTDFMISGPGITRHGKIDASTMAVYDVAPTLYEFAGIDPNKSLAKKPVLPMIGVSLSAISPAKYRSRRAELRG
Protocol: as §1, §2, §3, §4
as §5, with “One of the reported inhibitors of beta-G, EDTA, is a strong chelating agent.” left out

[6] = molecular target: T2, aryl sulfatase; test: Quantitative fluorimetric assay of AS; type: biochemical; settings: FIG. 4; relative initial rate vs log inhibitor concentration; 37° C.
Protocol: As in the semi-quantitative tests, the progress of the reactions was indicated by the development of fluorescent product 4-MU from the non-fluorescent substrates, 4-MUG and 4-MUS. The data was recorded as fluorescence emission intensity as a function of time. […] At each concentration, the beginning slope indicates the initial reaction rate. These rates were then expressed as a fraction of the uninhibited reaction rate and plotted against the log of the inhibitor concentration.

[7] = tested on: axillary odor; test: Human clinical study of axillary deodorancy; type: in vivo; settings: for Mean Odor Score: four-judge average, ten-point scoring, Zn-GLY […], ACH 5.0%
Protocol: The negative control was water. Odor assessments were performed by four experienced professional evaluators from Hill Top Research, using a ten-point scoring system. Ninety subjects were recruited, and baseline scores were established after a twenty-four hour conditioning period. Sixty subjects with highest scores (all greater than 4) were retained for the study.
During the test the subjects were entered into a regimen of timed, supervised washes with conditioning soap bars, followed by supervised treatments with the test solutions and post-treatment odor evaluation. The evaluations were conducted at 5-hr and 24-hr intervals following treatments 2, 3 and 4 and all aspects were randomized to eliminate any biases.
Scores of the four judges were averaged for each person, for each evaluation. The axilla-to-axilla difference for each person was taken as the index of the deodorancy of the test material versus the water control.
The positive control was 5.0% aluminum chlorhydrate. […] The negative control was distilled deionized water.
The mean odor scores represent the four-judge average odor scores, post-treatment. The control values are the average baseline odor scores for the various cells.

[8] = tested on: lipophilic diphtheroid; test: Minimum inhibitory concentration, lipophilic diphtheroid; type: cell-based; settings: ">" = growth at the highest concentration
Protocol: (§9) Minimum Inhibitory Concentration (MIC) values of several zinc complexes were measured for three organisms that occur naturally in the axilla: S. epidermidis, S. aureus and a lipophilic diphtheroid.
(§10) Simple salts of zinc are known to be bacteriostatic. An outcome of the experiments was producing a method to reduce axillary odor without destroying the natural flora of the axilla. Therefore MIC values of several zinc complexes and the antiseptic Irgasan DP 300 (positive control) were measured against several organisms that occur naturally in the underarm, including S epidermidis, S. aureus, and a lipophilic diphtheroid. The ">" signs indicate that bacterial growth occurred at the highest concentration of zinc compound. None of the zinc compounds were conspicuously inhibitory, having effective levels ranging from 0.1 to 1%.

[9] = tested on: S. aureus; test: Minimum inhibitory concentration, S. aureus; type: cell-based; settings: ">" = growth at the highest concentration
Protocol: as §9, §10

[10] = tested on: S. epidermidis; test: Minimum inhibitory concentration, S. epidermidis; type: cell-based; settings: ">" = growth at the highest concentration
Protocol: as §9, §10

[11] = test inhibitor at 0.1 mM to 100 mM, 4-MUS, 37° C., Tris pH 7, fluorescence by UV lamp

T1 sequence (P05804 whole entry): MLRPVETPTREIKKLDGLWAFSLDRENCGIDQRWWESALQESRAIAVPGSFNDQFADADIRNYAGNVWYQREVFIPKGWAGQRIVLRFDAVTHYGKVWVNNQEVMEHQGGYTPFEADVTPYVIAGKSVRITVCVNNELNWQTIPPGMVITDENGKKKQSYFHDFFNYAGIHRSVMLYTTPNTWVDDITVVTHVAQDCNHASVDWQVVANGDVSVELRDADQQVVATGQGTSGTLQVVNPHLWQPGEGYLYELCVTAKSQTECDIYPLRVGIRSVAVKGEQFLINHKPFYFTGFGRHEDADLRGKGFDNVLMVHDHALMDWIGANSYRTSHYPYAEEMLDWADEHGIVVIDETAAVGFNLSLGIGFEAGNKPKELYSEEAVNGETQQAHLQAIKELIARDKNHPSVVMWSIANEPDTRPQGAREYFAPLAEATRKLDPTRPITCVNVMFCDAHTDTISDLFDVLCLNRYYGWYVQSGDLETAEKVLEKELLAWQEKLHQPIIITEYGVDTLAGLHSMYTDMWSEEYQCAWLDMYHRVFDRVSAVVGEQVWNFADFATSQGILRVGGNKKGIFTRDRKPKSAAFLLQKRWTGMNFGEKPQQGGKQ

O=C(O)CC(O)(CC(=O)O)C(=O)O [Citrate]
inhibition of BETA-G [1]: -

fucose
inhibition of BETA-G [1]: -

mannose
inhibition of BETA-G [1]: -

N[C@H]1C(O)O[C@H](CO)[C@H](O)[C@@H]1O (stereo partly shown) [Galactosamine, galactosamine]
inhibition of BETA-G [1]: -

O=C(O)[C@@H](O)[C@H]1OC(=O)[C@H](O)[C@H]1O [D-glucaro-.tangle-solidup.-lactone, D-saccharic acid-.tangle-solidup.-lactone, reference compound]
inhibition of BETA-G [1]: +
odor [2]: Moderate sweaty
effective inhibitor concentration range for beta-G [3]: 1-10 μm
odor [4]: No odor to faint musky-sweaty

O=C(O)CN(CCN(CC(=O)O)CC(=O)O)CC(=O)O [EDTA, reference compound]
inhibition of BETA-G [1]: +
level at which inhibition of beta-G is provided [3]: millimolar levels
inhibition of AS [5, 11]: -

[Cu+2] [Cu++]
effective inhibitor concentration range for AS [6]: 0.1 to 10 µM
inhibition of BETA-G [1]: +
effective inhibitor concentration range for beta-G [3]: 10 to 100 µM
inhibition of AS [5, 11]: +

O=P(O)(O)O [Orthophosphate]
inhibition of AS ([5]; pH 7): +

c1cnc2c(c1)ccc1cccnc12 [O-phenanthroline, o-phenanthroline]
inhibition of BETA-G [1]: +
level at which inhibition of beta-G is provided [3]: millimolar levels

aluminum chlorhydrate [ACH]
% Difference (decrease in odor vs H2O axilla) ([7]; application #2, 5 hr): 34.0%
Mean Odor Score ([7]; application #2, 5 hr): 3.13
% Difference (decrease in odor vs H2O axilla) ([7]; application #2, 24 hr): 27.8%
Mean Odor Score ([7]; application #2, 24 hr): 3.91
% Difference (decrease in odor vs H2O axilla) ([7]; application #3, 5 hr): 28.8%
Mean Odor Score ([7]; application #3, 5 hr): 2.95
% Difference (decrease in odor vs H2O axilla) ([7]; application #3, 24 hr): 26.1%
Mean Odor Score ([7]; application #3, 24 hr): 3.88
% Difference (decrease in odor vs H2O axilla) ([7]; application #4, 5 hr): 34.9%
Mean Odor Score ([7]; application #4, 5 hr): 2.90
% Difference (decrease in odor vs H2O axilla) ([7]; application #4, 24 hr): 29.5%
Mean Odor Score ([7]; application #4, 24 hr): 3.64

O=S(=O)([O-])[O-].[Na+].[Na+] [Sodium sulfate]
inhibition of BETA-G [1]: +

[Zn+2] [Zn++]
effective inhibitor concentration range for AS [6]: 10-100 82 M
inhibition of BETA-G [1]: +
effective inhibitor concentration range for beta-G [3]: 10 to 100 µM
inhibition of AS [5, 11]: +

Oc1cc(Cl)ccc1Oc1ccc(Cl)cc1Cl [Irgasan, reference compound]
MIC, LIPOPHILIC DIPHTHEROID [8]: 16 ppm
MIC, STAPHYLOCOCCUS AUREUS [9]: < 0.5 ppm
MIC, STAPHYLOCOCCUS EPIDERMIS [10]: < 0.5 ppm

O=P1([O-])OP(=O)([O-])OP(=O)([O-])OP(=O)([O-])OP(=O)([O-])OP(=O)([O-])O1.[Na+].[Na+].[Na+].[Na+].[Na+].[Na+] [hexametaphosphate, Sodium hexametaphosphate]
effective inhibitor concentration range for AS [6]: 10-100 82 M
inhibition of BETA-G [1]: +
inhibition of AS [5, 11]: +
odor [4]: Faint/moderate musky-sweaty

[Cl-].[Cl-].[Zn+2] [ZnCl2]
MIC, LIPOPHILIC DIPHTHEROID [8]: > 1000 ppm
MIC, STAPHYLOCOCCUS AUREUS [9]: > 1000 ppm
MIC, STAPHYLOCOCCUS EPIDERMIS [10]: > 1000 ppm

pullulan
inhibition of BETA-G [1]: -
